PMC10115881, “Disrupting the α-synuclein-ESCRT interaction with a peptide inhibitor mitigates neurodegeneration in preclinical models of Parkinson’s disease” (Nature Communications, 2023)

Assays:
Type in all cases: cell-based, human
[1] = test system: WT a-syn-mediated cytotoxicity in HEK293 cells; assay: Pooled lentiviral 7-mer peptide cytotoxicity screen, WT a-syn + MG132; settings: for Reads 0M MG132: Illumina reads, average Phred >30;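 for Slope Norm Reads: reads normalized to total peptide reads per sample with scalar factor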
Excerpt: (§1) We used a lentiviral library of 50,549 7-mer peptides enriched in PPI motifs[13] on a green fluorescent protein (GFP) scaffold (Fig. 1A). We infected cells in a pooled format and the amino acid sequence of each peptide served as its own barcode. By using a low multiplicity of infection followed by puromycin selection, each infected cell expressed one unique GFP-peptide. We screened for peptides that reduced a-syn-mediated cytotoxicity or a-syn oligomers in parallel (Fig. 1A). To cause cytotoxicity relevant to PD, we induced proteostatic stress in HEK293 cells by inhibiting the proteasome with MG132 and overexpressing human WT a-syn associated with idiopathic PD in one screen or the more toxic mutant A53T a-syn associated with familial PD in a second screen. This combination of a-syn overexpression and pharmacological proteasome inhibition led to death of most cells, with only those that expressed a protective peptide surviving. By extracting genomic DNA from the surviving cells and amplifying the peptide coding sequences, we identified the protective peptides (Fig. 1A). To detect a-syn oligomers, we used a protein fragment complementation assay (PCA) of a-syn oligomerization in HEK293 cells. In this assay, human A53T a-syn was fused to either the C- or N-terminal half of yellow fluorescent protein (YFP). No fluorescence is detectable while a-syn exists in monomers but, when a-syn oligomerizes, the two halves of YFP come in close enough proximity to form a functional, spontaneously fluorescent protein. […] Our screens yielded 10 hits (Table S1). The hit with the most reads (i.e., the most abundant) was the same peptide in all screens: IPIQLKA (named PDpep1) (Table S1). We validated the cytoprotective effects of PDpep1 in HEK293 cells overexpressing WT or A53T a-syn (Figs. 1B, S1A), as well as its ability to reduce WT or A53T a-syn oligomers in a luciferase-based PCA[18]–[20] compared to a scrambled control peptide (Figs. 1C, S1B).
(§2) HEK293T cells (ATCC, CRL-3216) were maintained in DMEM supplemented with 10% FBS and 1% pen/strep/glutamine, and the appropriate selection antibiotics when required. Lentiviruses were made in a 15 cm dish format by transfecting packaging cells (HEK293T) with a three-plasmid system (expression vector, psPAX2 and pMD2.G) and using Polyjet DNA transfection reagent (FroggaBio, SL100688.1). Viral transduction of HEK293T cells were performed with a multiplicity of infection (MOI) of 0.3. Infected cells were selected in puromycin-containing medium to eliminate uninfected cells and three aliquots of cells were collected for sampling of the initial (T0) cell population. Cells were treated with MG132 at concentrations of 0, 10, 25, or 50 µM. For the cell viability screen, surviving cells were collected and gDNA was extracted for identification of peptide inhibitors of cell toxicity. For the inhibition of a-syn aggregation screen, a protein fragment complementation assay (PCA) was used by transfecting cells with split YFP-a-syn constructs following stable expression of the peptides. Cells were sorted based on their YFP fluorescence intensities with a FACSVantage SE cell sorter (BD Bioscience) and gDNA was extracted for identification of peptides.
(§3) Genomic DNA (gDNA) from peptide expressing cells at different time-points was extracted using QIAamp DNA Blood Mini Kit. PCR amplifications of peptides from gDNA in parallel with the lentiviral plasmid library (naïve library) were performed using indexed Illumina PCR primers to incorporate both the Illumina adapter sequences and indexing sequences. Each 50 μl reaction contained 3.2 μg of template, 2× PCR buffer, 2× enhancer solution, 300 μM each dNTP, 900 nM each of Adapter A (5′-[…]-[…]-3′) and Adapter B (5′-[…]-[…]-3′), 1 mM MgSO4, 3.75 units of Platinum Pfx polymerase, and water to 50 μl. […]

[2] = test system: A53T a-syn-mediated cytotoxicity in HEK293 cells; assay: Pooled lentiviral 7-mer peptide cytotoxicity screen, A53T a-syn + MG132; settings: for Reads 0M MG132: Illumina reads, average Phred >30;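 for Slope Norm Reads: reads normalized to total peptide reads per sample with scalar factor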
Excerpt: as §1, §2, §3

[3] = test system: A53T a-syn expressing HEK293 cells; assay: Cell Titer-Glo cell viability, A53T a-syn expressing cells; settings: A53T a-syn cells
Protocol: Oligonucleotides encoding the specific peptides were synthesized and individually cloned into the pLJM1 nGFP lentiviral vector. HEK293T cells were infected with individual constructs, and cell viability was assessed using Cell Titer-Glo luminescent assay (Promega) at 72 h post infection.
Cells were trypsinized from subconfluent cultures as described earlier, suspended in culture media, and then seeded into triplicate wells of a 96-well plate (100 µl/well) at a density of 1.5 × 10^4 cells per well with standard culture conditions of 5% CO2 at 37 °C. Cells were infected with lentivirus expressing peptide at a MOI of 5 for 72 h or transfected with plasmid for 72 h. Cell Titer-Glo reagent was added to each well (30 µL), according to the manufacturer’s protocol and […].

A53T a-syn oligomers = assay: Split-YFP PCA/FACS screen of A53T a-syn oligomers
Excerpt: as §1, §2
Cells were harvested by trypsin treatment and centrifuged at 500 × g for 5 min. The pellet was resuspended in ice-cold PBS and centrifuged again. The pellet was then resuspended at a concentration of 4 × 10^6 cells/ml in the sorting buffer, which is PBS containing 100 Kunitz DNase I/ml, 10 μg/ml propidium iodide (Sigma), and 2% FBS. The cells were then sent through a 40 μm filter to remove large clumps and loaded into either a FACScan Flow Cytometer (BD Bioscience) for cell analysis or a FACSVantage SE cell sorter (BD Bioscience) for cell sorting. The cells with positive propidium iodide staining (i.e., dead cells) were first eliminated from the analysis. […]

Substance | Reads 10M MG132 [1] | Reads 25M MG132 [1] | Slope Norm Reads [1] | Reads 0M MG132 [1] | Reads 10M MG132 [2] | Reads 25M MG132 [2] | Reads 50M MG132 [2] | Slope Norm Reads [2] | Reads 0M MG132 [2] | further results
RAPSCHL [library 7-mer, WT screen] | 13 | 33 | 0.15 | 1 |  |  |  |  |  | 
CKYRSVL [library 7-mer, A53T screen] |  |  |  |  | 7 | 11 | 438 | 1.30 | 5 | 
QVSVAQQ [library 7-mer, A53T screen] |  |  |  |  | 13 | 120 | 246 | 0.69 | 45 | 
PAMQIDG [library 7-mer, A53T screen] |  |  |  |  | 20 | 53 | 337 | 0.96 | 32 | 
QSPSSAW [library 7-mer, A53T screen] |  |  |  |  | 45 | 59 | 284 | 0.82 | 9 | 
GWTTVRR [library 7-mer, A53T screen] |  |  |  |  | 1 | 29 | 322 | 0.94 | 15 | 
DWLMVNL [library 7-mer, WT screen] | 13 | 29 | 0.13 | 1 |  |  |  |  |  | 
PLPTGMG [library 7-mer, WT screen] | 3 | 20 | 0.08 | 1 |  |  |  |  |  | 
CHMP2B 1-178: shorter truncated version of CHMP2B (amino acids 1–178), implicated in FTD |  |  |  |  |  |  |  |  |  | Effect on cell survival/viability [3]: increased toxicity
MQMKLSQ [library 7-mer, oligomers screen] |  |  |  |  |  |  |  |  |  | Reads GFP High (A53T a-syn oligomers): 1; Reads GFP Inter (A53T a-syn oligomers): 0; Reads GFP Neg (A53T a-syn oligomers): 70; Reads Ratio (A53T a-syn oligomers): 36.15
VYLDILG [library 7-mer, oligomers screen] |  |  |  |  |  |  |  |  |  | Reads GFP High (A53T a-syn oligomers): 1; Reads GFP Inter (A53T a-syn oligomers): 0; Reads GFP Neg (A53T a-syn oligomers): 59; Reads Ratio (A53T a-syn oligomers): 30.55
QAELSNS [library 7-mer, A53T screen] |  |  |  |  | 8 | 10 | 235 | 0.69 | 6 | 
LPASMPC [library 7-mer, WT screen] | 16 | 27 | 0.09 | 2 |  |  |  |  |  | 
QSVLQQV [library 7-mer, A53T screen] |  |  |  |  | 2 | 12 | 282 | 0.82 | 13 | 
TQKRELT [library 7-mer, oligomers screen] |  |  |  |  |  |  |  |  |  | Reads GFP High (A53T a-syn oligomers): 1; Reads GFP Inter (A53T a-syn oligomers): 0; Reads GFP Neg (A53T a-syn oligomers): 69; Reads Ratio (A53T a-syn oligomers): 35.64
AAYNLCA [library 7-mer, WT screen] | 14 | 19 | 0.07 | 1 |  |  |  |  |  | 
QSVVTAP [library 7-mer, A53T screen] |  |  |  |  | 6 | 37 | 465 | 1.38 | 8 | 
LSGECVP [library 7-mer, WT screen] | 28 | 28 | 0.07 | 3 |  |  |  |  |  | 
LQVGVAV [library 7-mer, WT screen] | 25 | 23 | 0.09 | 1 |  |  |  |  |  | 
WPRYPHI [library 7-mer, oligomers screen] |  |  |  |  |  |  |  |  |  | Reads GFP High (A53T a-syn oligomers): 1; Reads GFP Inter (A53T a-syn oligomers): 0; Reads GFP Neg (A53T a-syn oligomers): 92; Reads Ratio (A53T a-syn oligomers): 47.36
NNQYSFV [library 7-mer, oligomers screen] |  |  |  |  |  |  |  |  |  | Reads GFP High (A53T a-syn oligomers): 1; Reads GFP Inter (A53T a-syn oligomers): 0; Reads GFP Neg (A53T a-syn oligomers): 58; Reads Ratio (A53T a-syn oligomers): 30.04
GAAAGGT [library 7-mer, WT screen] | 10 | 17 | 0.06 | 1 |  |  |  |  |  | 
LKRDQPV [library 7-mer, oligomers screen] |  |  |  |  |  |  |  |  |  | Reads GFP High (A53T a-syn oligomers): 3; Reads GFP Inter (A53T a-syn oligomers): 0; Reads GFP Neg (A53T a-syn oligomers): 118; Reads Ratio (A53T a-syn oligomers): 30.30
CFLFQIQ [library 7-mer, oligomers screen] |  |  |  |  |  |  |  |  |  | Reads GFP High (A53T a-syn oligomers): 1; Reads GFP Inter (A53T a-syn oligomers): 0; Reads GFP Neg (A53T a-syn oligomers): 88; Reads Ratio (A53T a-syn oligomers): 45.32
EDVNKCV [library 7-mer, A53T screen] |  |  |  |  | 6 | 13 | 233 | 0.68 | 6 | 
CMVHSAG [library 7-mer, WT screen] | 14 | 33 | 0.08 | 4 |  |  |  |  |  | 
